In PubChem BioAssay (NCI):
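48-hour exposure; five concentrations; linearly interpolated endpoints. Here, GI50 denotes the concentration required for 50% inhibition of growth. TGI is the concentration that stops growth completely.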

What was measured:
Test in all cases: DTP human tumour cell line panel, 48 h
[1] = tested on: COLO 205 colon
[2] = tested on: LOX IMVI melanoma
[3] = tested on: NCI-H226 lung
[4] = tested on: RXF 393 renal
[5] = tested on: SF-268 CNS
[6] = tested on: SF-539 CNS
[7] = tested on: SK-MEL-28 melanoma
[8] = tested on: SK-OV-3 ovarian
[9] = tested on: SNB-19 CNS
[10] = tested on: DU-145 prostate

Row | Compound | TGI [1] | TGI [2] | TGI [3] | TGI [4] | TGI [5] | TGI [6] | TGI [7] | TGI [8] | TGI [9] | GI50 [1] | GI50 [2] | GI50 [3] | GI50 [4] | GI50 [5] | GI50 [6] | GI50 [7] | GI50 [8] | GI50 [9] | GI50 [10] | TGI [10]
1 | Cc1ccc(Nc2nc3c(s2)C(=O)c2ccccc2C3=O)c(C)c1 | 35.2 µM | 35.4 µM | 17.6 µM | 29.6 µM | 24.1 µM | 31.4 µM | 31.1 µM | 62.5 µM | 27.7 µM | – | – | – | – | – | – | – | – | – | – | –
2 | CN(C)CC/C(=N\Nc1c(Cl)cccc1Cl)c1ccccc1 | 29.4 µM | 31 µM | – | 28.5 µM | – | 34.2 µM | 39.7 µM | 52 µM | > 100 µM | – | – | – | – | – | – | – | – | – | – | –
3 | Cc1ccc(N(C(=O)CC(=O)NN)C(=O)c2ccccc2Cl)cc1 | > 100 µM | > 100 µM | > 100 µM | > 100 µM | > 100 µM | > 100 µM | > 100 µM | > 100 µM | > 100 µM | – | – | – | – | – | – | – | – | – | – | –
4 | CC(=O)[CH-]C(=O)c1ccccc1.CC(=O)[CH-]C(=O)c1ccccc1.O=C([O-])c1ccc([O-])cc1.O=C([O-])c1ccc([O-])cc1.[Ti+4] | 40.1 µM | > 100 µM | > 100 µM | 56.4 µM | > 100 µM | > 100 µM | > 100 µM | > 100 µM | > 100 µM | 20.6 µM | 28.9 µM | 37.3 µM | 15.3 µM | 25 µM | 40.2 µM | 41.6 µM | > 100 µM | 52.3 µM | – | –
5 | CC/C=C\C[C@@H]1C/C=C2/C(=O)C=C[C@H]2C/C=C\CCCC(=O)O1 | 1.05 µM | 0.323 µM | – | 1.73 µM | 3.67 µM | 2.97 µM | 1.85 µM | 7.94 µM | 3.36 µM | 0.284 µM | 0.145 µM | – | 0.492 µM | 1.34 µM | 0.533 µM | 0.424 µM | 2.49 µM | 1.25 µM | 0.362 µM | 1.28 µM
6 | CCC[CH2][Sn]1([CH2]CCC)[O]C(=O)C(C(C)C)N=Cc2ccccc2[O]1 (centres undefined) | 0.693 µM | 0.401 µM | – | 0.219 µM | 1.01 µM | > 100 µM | 0.819 µM | 1.63 µM | 0.645 µM | 0.213 µM | 0.163 µM | – | 0.0722 µM | 0.182 µM | 0.878 µM | 0.235 µM | 0.52 µM | 0.214 µM | – | –
7 | COc1c2c(cc3nc4ccccc4nc13)CCC(C(C)(C)O)C2 (centres undefined) | > 100 µM | > 100 µM | > 100 µM | > 100 µM | > 100 µM | > 100 µM | > 100 µM | > 100 µM | > 100 µM | – | – | – | – | – | – | – | – | – | – | –
8 | Cc1cccc(NC(=O)C(=O)Cc2nc3ccccc3[nH]c2=O)c1C | > 100 µM | > 100 µM | > 100 µM | > 100 µM | > 100 µM | > 100 µM | > 100 µM | > 100 µM | > 100 µM | – | – | – | – | – | – | – | – | – | – | –
9 | COC(=O)c1cccc2cccc(C(=O)Nc3ccc(C)cc3C)c12 | > 100 µM | > 100 µM | > 100 µM | > 100 µM | > 100 µM | > 100 µM | > 100 µM | > 100 µM | > 100 µM | – | – | – | – | – | – | – | – | – | – | –
